In US6156774A, “Beta-thiopropionyl-amino acid derivatives and their use as beta-lactamase inhibitors” (SmithKline Beecham P.L.C., priority 1996, dated 2000):

tested on: Bacteroides fragillis 262 strain, which produces CfiA metallo-β-lactamase; test: Antibacterial activity (MIC) in combination with meropenem; assay type: cell-based; conditions: read-out: MIC of compound alone
Source text: Antibacterial activity of compounds of the invention in combination with the carbapenem antibiotic, meropenem, against the Bacteroides fragillis 262 strain, which produces CfiA metallo-β-lactamase:
[MIC=minimum inhibitory concentration (μg/ml)]

SMILES | MIC
O=C(NC(C(=O)O)c1ccc(Cc2ccccc2)s1)C(CS)CCc1ccccc1 (centres unmarked) [Example 24, 2-[(5-Benzyl)thien-2-yl]-N-[2-(mercaptomethyl)-4-phenylbutyryl]glycine] | > 256 µg/mL
O=C(NC(C(=O)O)c1ccc(CC2CCOC2)s1)C(CS)CCc1ccccc1 (centres unmarked) [Example 26, 2-[5-(Tetrahydrofuran-3-ylmethyl)thien-2-yl]-N-[2-(mercaptomethyl)-4-phenylbutyryl]glycine] | > 256 µg/mL
O=C(NC(C(=O)O)c1cccc(Oc2ccccc2)c1)C(CS)CCc1ccccc1 (single isomer, unassigned) [Example 4, N-(2'-mercaptomethyl-4'-phenylbutanoyl)-m-phenoxy-phenylglycine] | > 256 µg/mL

same assay, conditions: read-out: MIC of meropenem alone

SMILES | MIC
C[C@@H](O)[C@H]1C(=O)N2C(C(=O)O)=C(S[C@@H]3CN[C@H](C(=O)N(C)C)C3)[C@H](C)[C@H]12 [meropenem, reference compound] | > 128 µg/mL

target: B. fragilis CfiA metallo-β-lactamase (Bacteroides fragilis, UniProt P25910); test: I50 screen, nitrocefin reporter substrate; assay type: biochemical; conditions: 25 mM PIPES pH 7, 37° C., nitrocefin 91 μM, 5 minute preincubation, Zn2+ 100 μM; read-out: I50 against B. fragilis CfiA metallo-β-lactamase
Sequence (P25910 19-249): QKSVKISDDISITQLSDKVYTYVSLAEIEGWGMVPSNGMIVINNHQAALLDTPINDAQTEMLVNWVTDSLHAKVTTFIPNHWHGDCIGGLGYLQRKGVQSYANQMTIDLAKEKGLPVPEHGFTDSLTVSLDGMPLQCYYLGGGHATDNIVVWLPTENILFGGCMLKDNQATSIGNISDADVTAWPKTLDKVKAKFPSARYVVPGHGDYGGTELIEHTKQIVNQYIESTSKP
Protocol: The inhibitory activity of the compounds of the invention was measured in 25 mM PIPES pH 7 buffer at 10 concentrations (1000, 333, 111, 37, 12.3, 4.1, 1.4, 0.46, 0.15 and 0.05 μM) at 37° C. using nitrocefin (91 μM final concentration) as the reporter substrate. The assays were performed with a 5 minute preincubation of enzyme and inhibitor and were conducted in the presence of added zinc sulphate (Zn^2+ 100 μM, final concentration). the methodology is described in detail in the following references: Payne et al (1991), J. Antimicrob. Chemother., 28:255; Payne et al (1994), Antimicrob. Agents and Chemother., 38:767.

SMILES | IC50
O=C(N[C@@H](C(=O)O)c1ccc(OCc2ccccn2)cc1)C(CS)CCc1ccccc1 (stereo partly drawn) [Example 56, N-(2'-RS-mercaptomethyl-4'-phenylbutanoyl)-p-(2-pyridylmethoxy)-D-phenylglycine] | < 1 µM
O=C(N[C@@H](C(=O)O)c1ccc(OCc2ccncc2)cc1)C(CS)CCc1ccccc1 (stereo partly drawn) [Example 55, N-(2'-RS-mercaptomethyl-4'-phenylbutanoyl)-p-(4-pyridylmethoxy)-D-phenylglycine] | < 1 µM
O=C(N[C@@H](C(=O)O)c1ccc(OCc2ccc(OCc3ccccc3)cc2)cc1)C(CS)CCc1ccccc1 (single isomer, unassigned) [Example 69, N-(2'-mercaptomethyl-4'-phenylbutanoyl)-p-(p-benzyloxy)-benzyloxy-D-phenylglycine] | < 1 µM
CN(C)c1ccc(COc2ccc([C@@H](NC(=O)C(CS)CCc3ccccc3)C(=O)O)cc2)cc1 (single isomer, unassigned) [Example 48, N-(2'-mercaptomethyl-4'-phenylbutanoyl)-p-(p-dimethylamino)-benzyloxy-D-phenylglycine] | < 1 µM
O=C(N[C@@H](C(=O)O)c1ccc(OCc2cccs2)cc1)C(CS)CCc1ccccc1 (single isomer, unassigned) [Example 21, N-(2'-mercaptomethyl-4'-phenylbutanoyl)-p-(2"-thienylmethoxy)-D-phenylglycine] | < 1 µM
CN(C)c1ccc(CCOc2ccc([C@@H](NC(=O)C(CS)CCc3ccccc3)C(=O)O)cc2)cc1 (single isomer, unassigned) [Example 66, N-(2'-mercaptomethyl-4'-phenylbutanoyl)-p-(p-dimethylamino)-phenethyloxy-D-phenylglycine] | < 1 µM
O=C(O)c1cccc(COc2ccc([C@@H](NC(=O)C(CS)CCc3ccccc3)C(=O)O)cc2)c1 (single isomer, unassigned) [Example 50, N-(2'-mercaptomethyl-4'-phenylbutanoyl)-p-(m-carboxy)-benzyloxy-D-phenylglycine] | < 1 µM
O=C(NC(C(=O)O)c1ccc(Cc2ccccc2)s1)C(CS)CCc1ccccc1 (racemic) [34 (more polar isomer), 2-[(5-Benzyl)thien-2-yl]-N-[2-(mercaptomethyl)-4-phenylbutyryl]glycine] | < 1 µM
O=C(N[C@@H](C(=O)O)c1ccc(OCc2ccccc2)cc1)C(CS)CCc1ccccc1 (single isomer, unassigned) [Example 19, N-(2'-mercaptomethyl-4'-phenylbutanoyl)-p-benzyloxy-D-phenylglycine] | < 1 µM
O=C(N[C@@H](C(=O)O)c1ccc(OCc2ccc([N+](=O)[O-])cc2)cc1)C(CS)CCc1ccccc1 (single isomer, unassigned) [Example 53, N-(2'-mercaptomethyl-4'-phenylbutanoyl)-p-(p-nitro)-benzyloxy-D-phenylglycine] | < 1 µM
O=C(NC(C(=O)O)c1cccc(Oc2ccccc2)c1)C(CS)CCc1ccccc1 (single isomer, unassigned) [Example 3, N-(2'-mercaptomethyl-4'-phenylbutanoyl)-m-phenoxy-phenylglycine] | < 1 µM
C[n+]1cccc(COc2ccc([C@@H](NC(=O)C(CS)CCc3ccccc3)C(=O)[O-])cc2)c1 (stereo partly drawn) [Example 67, N-(2'-RS-mercaptomethyl-4'-phenylbutanoyl)-p-(N-methyl-3-pyridiniummethoxy)-D-phenylglycine] | < 1 µM
O=C(NC(C(=O)O)c1cccc(Oc2ccccc2)c1)C(CS)CCc1ccccc1 (single isomer, unassigned) [Example 4, N-(2'-mercaptomethyl-4'-phenylbutanoyl)-m-phenoxy-phenylglycine] | < 1 µM
